Data on one compound can be found in PMC3625590, “NBM-T-L-BMX-OS01, Semisynthesized from Osthole, Is a Novel Inhibitor of Histone Deacetylase and Enhances Learning and Memory in Rats” (Evidence-based Complementary and Alternative Medicine : eCAM, 2013).

One test concerns HDAC8. Nature of the test: HDAC8 activity assay (Fluor-de-Lys) in brain nuclear extracts after behavioural tests. Format: in vivo, Sprague-Dawley rats. To be noted: 5 mg/kg/d i.p., compared with trained-control animals. How it is done:
For the HDAC8 activity assay, the deacetylase activity of HDAC8 was measured using the commercially available Fluor-de-Lys-HDAC8 deacetylase substrate (Enzo, New York, NY, USA) according to the manufacturer instructions. […] The homogenate was centrifuged at 1000 ×g for 10 min to obtain the nuclei pellet. […] To determine the HDAC activity, 10 μg of nuclear extracts was incubated with a specific substrate (100 μM) for 30 min at 37°C, followed by the addition of a developer solution for 30 min at 37°C. […] Data were normalized to swimming control, footshock control, and nontrained-control animals.

The next test relates to Sco-induced amnesia rats. Nature of the test: Water-maze learning, Sco-induced memory impairment. The class given is in vivo, Sprague-Dawley rats. To be noted: Sco 1.5 mg/kg/d; BMX or SAHA 5 mg/kg/d i.p. How it is done: SAHA was supplied by NatureWise Biotech and Medicals Corporation (Taipei, Taiwan). […] (St. Louis, MO, USA). The BMX and SAHA stock (100 mg/mL) was dissolved in DMSO and diluted with saline to a final concentration of 0.5 mg/mL (in 0.5% DMSO/saline). […] SD rats were randomly divided into 3 groups. For the naïve animal experiments, the BMX-injected or SAHA-injected groups were injected with BMX (5 mg/kg/d) or SAHA (5 mg/kg/d) intraperitoneally 7 d prior to behavioral experiments and during the experimentation. The control group received the 0.5% DMSO/saline injection. The injection volume was 10 μL/g of body weight. The injections were performed once per day. For the amnesia experiment, the protocol was adopted from previous studies with modifications. […] The control group received the 0.5% DMSO/saline injection. The injection volume was 10 μL/g of body weight. […] The method was adopted from that of a previous study with modifications. A plastic circular pool 2.0 m in diameter and 0.6 m in height was filled with water (25 ± 2°C) to a depth of 20 cm. A circular platform (8 cm in diameter) was placed at a specific location from the edge of the pool and submerged 2-3 cm below the water surface. Water was made cloudy by adding toxic-free dye. Distinctive visual cues were set on the wall. For spatial learning, animals were subjected to 3 trials per day, with one trial early in the morning, one trial at noon, and another in the late afternoon. The training procedure lasted 4 days, and a total of 12 trials were given. This procedure was adopted because spaced training is a better paradigm to facilitate memory consolidation. For these trials, the rats were positioned at different starting points spaced equally around the perimeter of the pool in random order. They had 120 s to find the hidden platform. If a rat could not find the platform, it was guided to the platform and was allowed to remain there for 20 s. The time each animal took to reach the platform was recorded as the escape latency. A probe trial of 120 s was given on day 5 to test their memory retention. The rats were placed in the pool with the platform removed, and the time they spent in each quadrant (Quadrants 1, 2, 3, and 4) was recorded. Quadrant 4 is the target quadrant. For the trained and swimming control experiments, rats in the trained group were subjected to the regular water maze learning procedure. At the end of the experiment, the rats were subjected to visible platform learning. For visible platform learning, a flag was mounted on the platform, and the platform was raised 2.5 cm above the surface of the water. In addition, the dye had not been added, so that the animals could see the location of the platform from the water. […]

The subject of test [1] is primary hippocampal neurons. In words: Neurite outgrowth by immunocytochemistry. The class given is cell-based, Sprague-Dawley rats. On the procedure:
The primary hippocampal culture was prepared as described previously. To culture embryonic hippocampal primary neurons, pregnant Sprague-Dawley rats were purchased from the National Laboratory Center in Taiwan. The hippocampal tissue from the embryos of the Sprague-Dawley rats (E19) was dissociated with 100 U/mL of papain (Sigma-Aldrich) and plated onto poly-L-lysine-coated coverslips at a density of 1 × 10^4 cells/cm^2 with a minimal essential medium containing 5% calf serum, 5% horse serum, and 50 ng/mL insulin-transferrin-selenite (Sigma-Aldrich). Three hours after plating, the medium was replaced with 2% of a B27-neurobasal medium (Invitrogen, Carlsbad, CA, USA) containing 0.5 mM glutamine and 12.5 μM glutamate.
Supplemental Materials and Methods
2.1. HEK293T cells. HEK293T cells were maintained in Dulbecco’s modified Eagle’s medium (Invitrogen) supplemented with 10% fetal calf serum (Invitrogen). Cultures were maintained in a humidified 5% CO2-95% air atmosphere at 37°C.
2.2. Immunocytochemistry. Cultured hippocampal neurons were fixed with 4% paraformaldehyde for 15 min and permeablized with 0.1% Triton X-100 for 20 min at room temperature (RT). The primary Mouse anti-β III tubulin and anti-actin (Millipore) Abs were added for 1 h at RT. […]
The lysate was resolved by 8% SDS-PAGE. […] The protein bands were quantified using the NIH Image J Software. […]

For the compound `O=C(CCCCCCC(=O)Nc1ccccc1)NO` [SAHA, suberoylanilide hydroxamic acid, reference compound], in the test on HDAC8 (7 days after footshock), the “HDAC8 activity in amygdala” value is “did not have increased HDAC8 activity”. Also, the “HDAC8 activity in hippocampus” value in the test on HDAC8 (after novel object recognition task) is listed as “did not have further increased HDAC8 activity”. The “HDAC8 activity in hippocampus” value with HDAC8 (after water-maze probe trial) was “did not increase HDAC8 activity”. Also, in the test with Sco-induced amnesia rats, the “escape latency in finding the hidden platform” value was “attenuates Sco-induced longer escape latency” and the “probe trial, time spent in target quadrant” value was “spent more time in the target quadrant”. Also, in test [1], the “neurite branch and neurite length” value is reported as “increased the neurite length in particular”.
